Data taken from USRE39634E1, “Bisarylimidazoly fatty acid amide hydrolase inhibitors” (Bristol-Myers Squibb Company, priority 2001, dated 2007).

Molecular target: T1, human FAAH (Homo sapiens, UniProt O00519)
T1 construct: expressed in transfected cells; host or cells: H4 cells stably transfected with human FAAH (Geneticin selection); crude membrane homogenates
T1 sequence (O00519 1-579): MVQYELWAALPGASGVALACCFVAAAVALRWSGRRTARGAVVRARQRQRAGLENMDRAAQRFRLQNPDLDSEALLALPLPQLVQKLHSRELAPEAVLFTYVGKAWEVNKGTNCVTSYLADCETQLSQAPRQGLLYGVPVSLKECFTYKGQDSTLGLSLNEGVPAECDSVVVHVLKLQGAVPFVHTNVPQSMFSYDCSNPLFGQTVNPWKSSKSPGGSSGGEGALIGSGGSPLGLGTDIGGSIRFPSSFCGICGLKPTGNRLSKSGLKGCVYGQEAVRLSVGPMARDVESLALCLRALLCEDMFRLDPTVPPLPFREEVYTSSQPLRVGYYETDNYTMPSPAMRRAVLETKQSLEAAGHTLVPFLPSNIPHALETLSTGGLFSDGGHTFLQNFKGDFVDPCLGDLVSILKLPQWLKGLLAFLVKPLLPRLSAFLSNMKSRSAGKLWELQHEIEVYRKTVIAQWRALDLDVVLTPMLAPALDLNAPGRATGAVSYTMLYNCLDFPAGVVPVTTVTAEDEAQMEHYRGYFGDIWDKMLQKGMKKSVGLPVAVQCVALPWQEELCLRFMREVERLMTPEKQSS
Assay: Determination of FAAH activity (membrane homogenates of H4-FAAH cells, [3H]-anandamide hydrolysis)
Type: biochemical
Conditions: transfected human FAAH, H4-FAAH cell membranes, 10 μM anandamide, room temperature, one hour
Protocol: Homogenates of crude membranes were prepared from H4 cells that express transfected human FAAH (H4-FAAH cells). Briefly, cells were grown in DMEM supplemented with 10% FBS and Geneticin at a final concentration of 500 μg/ml (Gibco BRL, Rockville, Md.). Confluent cultures of H4-FAAH cells were rinsed twice with phosphate-buffered saline [138 mM NaCl, 4.1 mM KCl, 5.1 mM Na2PO4, 1.5 mM KH2PO4 (pH 7.5), 37° C.] and incubated for 5-10 min. at 4° C. in lysis buffer [1 mM sodium bicarbonate]. Cells were transferred from plates to polypropylene tubes (16×100 mm), homogenized and centrifuged at 32,000×g for 30 min. Pellets were resuspended by homogenization in lysis buffer and centrifuged at 32,000×g for 30 min. Pellets were resuspended in lysis buffer (15-20 μg protein/ml) then stored at −80° C. until needed. On the day of an experiment, membranes were diluted to 2.67 μg protein/ml in 125 mM Tris-Cl, pH 9.0
Activity of FAAH was measured using a modification of the method described by Omeir et al., 1995 (Life Sci 56:1999, 1995). Membrane homogenates (240 ng protein) were incubated at room temperature for one hour with 1.67 nM anandamide [ethanolamine 1-^3H] (American Radiolabeled Chemical Inc., St Louis, Mo.) and 10 μM anandamide (Sigma/RBI, St. Louis, Mo.) in the absence and presence of inhibitors. The reaction was stopped by the addition of 1 volume of a solution of methanol and dichloroethane (1:1). The mixture was shaken and then centrifuged at 1000×g for 15 min. to separate the aqueous and organic phases. An aliquot of the aqueous phase, containing [^3H]-ethanolamine was withdrawn and counted by scintillation spectroscopy. Data were expressed as the percentage of [^3H]-ethanolamine formed versus vehicle, after subtraction of the background radioactivity determined in the presence of 10 μM arachidonyl trifluoromethyl ketone (ATFMK), an inhibitor of FAAH. IC50 values were determined using a four-parameter logistic equation for dose-response curves.

COc1cccc(OC)c1OC(=O)NCCCCCn1c(C)nc(-c2ccccc2)c1-c1ccccc1 [Example 39, [5-(2-Methyl-4,5-diphenyl-imidazol-1-yl)-pentyl]-carbamic acid 2,6-dimethoxy-phenyl ester]
IC50: 1000 to 10000 nM

COC(=O)NCCCCCCCn1c(C)nc(-c2ccccc2)c1-c1ccccc1 [Example 18, [7-(2-Methyl-4,5-diphenyl-imidazol-1-yl)-heptyl]-carbamic acid methyl ester]
IC50: 100 to 1000 nM

Cc1nc(-c2ccccc2)c(-c2ccccc2)n1CCCCCCCNC(=O)Oc1ccccc1 [Example 20, [7-(2-Methyl-4,5-diphenyl-imidazol-1-yl)-heptyl]-carbamic acid phenyl ester]
IC50: < 10 nM

Cc1nc(-c2ccccc2)c(-c2ccccc2)n1CCOc1ccc(NC(=O)Oc2ccccc2)cc1 [Example 60, {4-[2-(2-Methyl-4,5-diphenyl-imidazol-1-yl)-ethoxy]-phenyl}-carbamic acid phenyl ester]
IC50: 1000 to 10000 nM

Cc1nc(-c2ccccc2)c(-c2ccccc2)n1CCCCCCNC(=O)Oc1ccc(C#N)cc1 [Example 15, [6-(2-Methyl-4,5-diphenyl-imidazol-1-yl)-hexyl]-carbamic acid 4-cyano-phenyl ester]
IC50: 10 to 100 nM

Cc1nc(-c2ccccc2)c(-c2ccccc2)n1CCCOc1ccc(NC(=O)Oc2cccc(Cl)c2)cc1 [Example 59, {4-[3-(2-Methyl-4,5-diphenyl-imidazol-1-yl)-propoxy]-phenyl}-carbamic acid 3-chloro-phenyl ester]
IC50: 100 to 1000 nM

COc1ccc(OC(=O)NCCCCCCn2c(C)nc(-c3ccccc3)c2-c2ccccc2)cc1 [Example 13, [6-(2-Methyl-4,5-diphenyl-imidazol-1-yl)-hexyl]-carbamic acid 4-methoxy-phenyl ester]
IC50: 10 to 100 nM

Cc1nc(-c2ccccc2)c(-c2ccccc2)n1CCCOc1ccc(NC(=O)Oc2ccc(Cl)cc2)cc1 [Example 57, {4-[3-(2-Methyl-4,5-diphenyl-imidazol-1-yl)-propoxy]-phenyl}-carbamic acid 4-chloro-phenyl ester]
IC50: 100 to 1000 nM

Cc1nc(-c2ccccc2)c(-c2ccccc2)n1CCCCCC(NC(=O)Oc1ccccc1F)c1ccccc1 (stereo not drawn) [Example 74, [6-(2-Methyl-4,5-diphenyl-imidazol-1-yl)-1-phenyl-hexyl]-carbamic acid 2-fluoro-phenyl ester]
IC50: 100 to 1000 nM

Cc1nc(-c2ccccc2)c(-c2ccccc2)n1CCCCCCNC(=O)Oc1ccc(F)cc1F [Example 11, [6-(2-Methyl-4,5-diphenyl-imidazol-1-yl)-hexyl]-carbamic acid 2,4-difluoro-phenyl ester]
IC50: < 10 nM

Cc1nc(-c2ccccc2)c(-c2ccccc2)n1CCCCCNC(=O)Oc1ccc(Cl)cc1 [Example 35, [5-(2-Methyl-4,5-diphenyl-imidazol-1-yl)-pentyl]-carbamic acid 4-chloro-phenyl ester]
IC50: 10 to 100 nM

Cc1nc(-c2ccccc2)c(-c2ccccc2)n1CCCOc1ccc(NC(=O)Oc2ccc(F)c(F)c2)cc1 [Example 55, {4-[3-(2-Methyl-4,5-diphenyl-imidazol-1-yl)-propoxy]-phenyl}-carbamic acid 3,4-difluoro-phenyl ester]
IC50: 100 to 1000 nM

COc1cccc(OC)c1OC(=O)NCCCCCCn1c(C)nc(-c2ccccc2)c1-c1ccccc1 [Example 16, [6-(2-Methyl-4,5-diphenyl-imidazol-1-yl)-hexyl]-carbamic acid 2,6-dimethoxy-phenyl ester]
IC50: 100 to 1000 nM

Cc1nc(-c2ccccc2)c(-c2ccccc2)n1CCCCCCNC(=O)Oc1ccc(F)c(F)c1 [Example 41, [6-(2-Methyl-4,5-diphenyl-imidazol-1-yl)-hexyl]-carbamic acid 3,4-difluoro-phenyl ester]
IC50: < 10 nM

Cc1nc(-c2ccccc2)c(-c2ccccc2)n1CCCCCCNC(=O)Oc1ccccc1 [Example 9]
IC50: < 10 nM

COc1ccc(OC(=O)Nc2ccc(OCCn3c(C)nc(-c4ccccc4)c3-c3ccccc3)cc2)cc1 [Example 64, {4-[2-(2-Methyl-4,5-diphenyl-imidazol-1-yl)-ethoxy]-phenyl}-carbamic acid 4-methoxy-phenyl ester]
IC50: 1000 to 10000 nM

Cc1nc(-c2ccccc2)c(-c2ccccc2)n1CCCCCCCNC(=O)Oc1ccc(F)cc1F [Example 23, [7-(2-Methyl-4,5-diphenyl-imidazol-1-yl)-heptyl]-carbamic acid 2,4-difluoro-phenyl ester]
IC50: 10 to 100 nM

COc1ccc(OC(=O)Nc2ccc(OCCCn3c(C)nc(-c4ccccc4)c3-c3ccccc3)cc2)cc1 [Example 56, {4-[3-(2-Methyl-4,5-diphenyl-imidazol-1-yl)-propoxy]-phenyl}-carbamic acid 4-methoxy-phenyl ester]
IC50: 100 to 1000 nM

Cc1nc(-c2ccc(F)cc2)c(-c2ccc(F)cc2)n1CCCCCCNC(=O)Oc1ccccc1F [Example 43, {6-[4,5-Bis-(4-fluoro-phenyl)-2-methyl-imidazol-1-yl]-hexyl}-carbamic acid 2-fluoro-phenyl ester]
IC50: < 10 nM

Cc1nc(-c2ccccc2)c(-c2ccccc2)n1CCOc1ccc(NC(=O)Oc2ccc(Cl)cc2)cc1 [Example 53, {4-[2-(2-Methyl-4,5-diphenyl-imidazol-1-yl)-ethoxy]-phenyl}-carbamic acid 4-chloro-phenyl ester]
IC50: 1000 to 10000 nM

COc1ccc(OC(=O)NCCCCCn2c(C)nc(-c3ccccc3)c2-c2ccccc2)cc1 [Example 36, [5-(2-Methyl-4,5-diphenyl-imidazol-1-yl)-pentyl]-carbamic acid 4-methoxy-phenyl ester]
IC50: 10 to 100 nM

Cc1nc(-c2ccccc2)c(-c2ccccc2)n1CCCOc1ccc(NC(=O)Oc2c(F)cccc2F)cc1 [Example 69, {4-[3-(2-Methyl-4,5-diphenyl-imidazol-1-yl)-propoxy]-phenyl}-carbamic acid 2,6-difluoro-phenyl ester]
IC50: 1000 to 10000 nM

Cc1nc(-c2ccccc2)c(-c2ccccc2)n1CCCCCCNC(=O)O/N=C/c1ccccc1 [Example 46, Benzaldehyde, O-[6-(2-methyl-4,5-diphenyl-1H-imidazol-1-yl)hexylaminocarbonyl]oxime]
IC50: 10 to 100 nM

Cc1nc(-c2ccccc2)c(-c2ccccc2)n1CCCCCCCNC(=O)Oc1ccc(C#N)cc1 [Example 27, [7-(2-Methyl-4,5-diphenyl-imidazol-1-yl)-heptyl]-carbamic acid 4-cyano-phenyl ester]
IC50: < 10 nM

Cc1nc(-c2ccccc2)c(-c2ccccc2)n1CCCCCCNC(=O)O/N=C/c1ccc([N+](=O)[O-])cc1 [Example 50, 4-Nitrobenzaldehyde, O-{6-(2-methyl-4,5-diphenyl-1H-imidazol-1-yl)hexylaminocarbonyl]oxime]
IC50: 10 to 100 nM

Cc1nc(-c2ccccc2)c(-c2ccccc2)n1CCCCCCCNC(=O)Oc1ccc(F)cc1 [Example 21, [7-(2-Methyl-4,5-diphenyl-imidazol-1-yl)-heptyl]-carbamic acid 4-fluoro-phenyl ester]
IC50: 10 to 100 nM

Cc1nc(-c2ccccc2)c(-c2ccccc2)n1CCCCCC(NC(=O)Oc1ccccc1F)C(C)C (stereo not drawn) [Example 73, [1-Isopropyl-6-(2-methyl-4,5-diphenyl-imidazol-1-yl)-hexyl]-carbamic acid 2-fluoro-phenyl ester]
IC50: 100 to 1000 nM

COc1ccc(OC(=O)NCCCCCCCn2c(C)nc(-c3ccccc3)c2-c2ccccc2)cc1 [Example 25, [7-(2-Methyl-4,5-diphenyl-imidazol-1-yl)-heptyl]-carbamic acid 4-methoxy-phenyl ester]
IC50: 10 to 100 nM

Cc1nc(-c2ccccc2)c(-c2ccccc2)n1CCCCCCNC(=O)Oc1ccc(Cl)cc1 [Example 12, [6-(2-Methyl-4,5-diphenyl-imidazol-1-yl)-hexyl]-carbamic acid 4-chloro-phenyl ester]
IC50: < 10 nM

COc1ccccc1OC(=O)NCCCCCCn1c(C)nc(-c2ccccc2)c1-c1ccccc1 [Example 17, [6-(2-Methyl-4,5-diphenyl-imidazol-1-yl)-hexyl]-carbamic acid 2-methoxy-phenyl ester]
IC50: 100 to 1000 nM
